Laboratory results: article PMC7789826 (Journal of Molecular Structure, 2021)

Biological target: voltage-gated potassium channel Kv1.3 (Homo sapiens, UniProt P22001)
Assay: whole-cell patch clamp, voltage ramp, endogenous Kv1.[…] current in Jurkat T cells
Type: cell-based

voltage-gated potassium channel Kv1.3, sequence (P22001 whole entry): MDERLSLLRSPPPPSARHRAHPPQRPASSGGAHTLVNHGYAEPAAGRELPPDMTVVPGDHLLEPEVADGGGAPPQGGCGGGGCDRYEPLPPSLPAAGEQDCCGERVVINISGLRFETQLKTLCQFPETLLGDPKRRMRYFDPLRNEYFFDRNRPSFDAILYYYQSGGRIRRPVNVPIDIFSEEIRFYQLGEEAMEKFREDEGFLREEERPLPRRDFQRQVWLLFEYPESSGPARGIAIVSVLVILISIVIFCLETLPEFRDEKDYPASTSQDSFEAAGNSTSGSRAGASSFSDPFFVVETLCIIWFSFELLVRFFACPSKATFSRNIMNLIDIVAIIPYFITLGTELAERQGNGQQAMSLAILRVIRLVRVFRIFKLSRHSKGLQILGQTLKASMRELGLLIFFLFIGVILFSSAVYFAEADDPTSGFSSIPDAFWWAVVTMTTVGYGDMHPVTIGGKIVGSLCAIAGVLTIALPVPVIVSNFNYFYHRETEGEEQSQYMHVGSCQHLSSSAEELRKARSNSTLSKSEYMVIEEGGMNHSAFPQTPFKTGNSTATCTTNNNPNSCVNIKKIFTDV

| EC50 | SMILES |
| --- | --- |
| 6.04 µM | CC[C@H](C)C(=O)O[C@H]1CCC=C2C=C[C@H](C)[C@H](CC[C@@H]3C[C@@H](O)CC(=O)O3)[C@H]21 [mevastatin] |
| 4.85 µM | CCC(C)(C)C(=O)O[C@H]1C[C@@H](C)C=C2C=C[C@H](C)[C@H](CC[C@@H]3C[C@@H](O)CC(=O)O3)[C@H]21 [simvastatin] |
